Measured values published in article PMC6132687, “Stem cells are the most sensitive screening tool to identify toxicity of GATA4-targeted novel small-molecule compounds” (Archives of Toxicology, 2018).

How the values were obtained:
mESCs = experiment: MTT assay in mESCs; type: cell-based, mouse; conditions: 24 h; for reduction in cell viability: 30 µM
Experimental: (§1) The cells were exposed to the test compounds for 24 h and cytotoxicity was quantified with MTT and LDH assays as described previously (Talman et al. [2011]). For the determination of cell membrane integrity, 50 µl of medium from each well was transferred onto a new 96-well plate followed by addition of 50 µl of substrate solution containing 1.3 mM β-nicotinamide adenine dinucleotide, 660 µM iodonitrotetrazolium, 54 mM L(+)-lactic acid, 280 µM phenazine methosulphate and 0.2 M Tris–HCl (pH 8.0). After a 30-min incubation, the reaction was stopped by adding 50 µl of 1 M acetic acid to each well and absorbance was measured at 490 nm using Victor2 plate reader (PerkinElmer, Turku, Finland). Spontaneous LDH release was measured from untreated cells, maximal LDH release from cells lysed with 0.9% Triton X-100 and background absorbance was measured from wells without cells. After background extraction, cytotoxicity was calculated as follows: cytotoxicity (%) = [(sample − spontaneous LDH release)/(maximal LDH release − spontaneous LDH release)] × 100. For quantification of metabolic activity, 3-(4,5-dimethylthiazol-2-yl)-2,5-diphenyltetrazolium bromide (MTT) was added to the cells at a final concentration of 0.5 mg/ml followed by 2 h incubation in cell culture conditions. The medium was then aspirated and formazan crystals were solubilized in DMSO. Absorbance was measured at 550 nm and absorbance at 650 nm was subtracted as background.
Mouse embryonic stem cells (mESCs), embryoid bodies (EBs), and primary mouse embryonic fibroblasts (MEFs) were used for toxicity experiments. E14 mESCs were cultured in feeder-free conditions on plates coated with 0.1% gelatin in DMEM with 15% FBS, GlutaMax, MEM non-essential amino acids, 2-mercaptoethanol, and leukemia inhibitory factor (LIF). For toxicity assays, the cells were dissociated with TrypLe and plated at 5,000 cells/well in gelatin-coated 96-well plates 24 hours prior to compound exposures. […]
1640 without glucose with B-27 supplement in order to purify cardiomyocytes. From day 15 onwards the cells were maintained in RPMI 1640 supplemented with B-27 (RB+ins). Beating hiPSC-CMs were dissociated between days 15 and 22 by incubating them in cell dissociation solution containing 40% enzyme-free cell dissociation buffer, 40% RPMI 1640 and 20% trypsin-EDTA (final trypsin concentration 0.01%) for 7–8 min, whereafter the cells were collected and trypsin was inactivated in RB+ins supplemented with 10% FBS. After centrifugation the cells were suspended in RB+ins with 10% FBS containing 10 µM ROCK inhibitor and seeded at 15,000 cells/well (cytotoxicity assays) or 20,000 cells/well (high content analysis) in gelatin-coated 96-well plates. The cells were let to attach for 2 days at 37 °C in standard conditions, whereafter the compounds were added in RB+ins. In general, the differentiation yielded an almost pure (>95%) cardiomyocyte culture.
Syntheses and characterization of compounds
Materials and general procedures. All reagents were acquired from Sigma-Aldrich (Schnelldorf, Germany) and Enamine (Kiev, Ukraine), and were used without further purification. All reactions in anhydrous solvents were conducted in oven-dried glassware under anhydrous argon. Thin-layer chromatography (TLC) was performed using Silica Gel 60 F254 (Merck) and Silica Gel 60 NH2 F254s aluminium sheets (Merck), visualized by UV illumination and stained with ninhydrin in EtOH (1.5% w/v). […] The 1H and 13C NMR spectra were recorded on a Varian

[1] = tested on: stem cell and progenitor cell viability; experiment: Toxicity classification from MTT screening across cell types; conditions: based on effects on stem cell and progenitor cell viability
Experimental: as §1
When comparing the effects of different compounds within each individual cell type, the compounds can be grouped into two main classes: toxic (3i-1000, 3i-1120, 3i-1148 and 3i-1229) and non-toxic (3i-1047, 3i-1051, 3i-1165, and 3i-1228) compounds. Based on the hiPSC toxicity data, 3i-1148 can be considered as the most toxic compound with an IC50 of 0.30 µM (Fig. 5b).

[2] = tested on: GATA4–NKX2-5 transcriptional synergy; experiment: Luciferase reporter assay of GATA4–NKX2-5 synergistic gene activation in COS-1 cells; type: cell-based, African green monkey; conditions: 24 h treatment, normalized to DMSO
Experimental: COS-1 cells were used to investigate the compound effects on GATA4–NKX2-5 synergistic gene activation using a luciferase reporter assay (Kinnunen et al. [2015]). Toxicity profiling was carried out in eight cell types: the H9c2 myoblast cell line, NRVCs, CFs, mESCs, MEFs, mESC derivatives from day 5 embryoid bodies (D5EBs), hiPSCs and hiPSC-CMs. All cell cultures were maintained at 37 °C in a humidified atmosphere of 5% carbon dioxide (CO2) and the regular growth medium was used for compound exposures. Cell culture methods and cardiomyocyte differentiation from human pluripotent stem cells are described in Supplementary Information.
The empty expression plasmid MT2 (pMT2) and mouse Gata4 expressing pMT2-Gata4 plasmids were gifts from D. B. Wilson (Department of Pediatrics, St. Louis Children’s Hospital) (Arceci et al. [1993]). The luciferase reporter plasmid pGL3-3xHA containing three Nkx2-5 high-affinity binding sites has been described previously (Kinnunen et al. [2015]). To create mouse Nkx2-5 expressing pMT2-Nkx2-5, the cDNA was cloned from pFLCI-Nkx2-5 (clone D330001C20, Imagenes), which was a kind gift from R. Kerkelä (University of Oulu, Finland), with primers containing the EcoRI restriction site (forward: 5′-[…]-3′ and reverse 5′-[…]-3′) and ligated to pMT2 EcoRI site. The correct clone was identified by digestion with specific restriction enzymes and the sequence was verified by DNA sequencing (DNA Sequencing and Genomics Laboratory, Institute of Biotechnology, University of Helsinki, Finland).
COS-1 cells grown on 96-well plates were transfected with the luciferase reporter plasmid pGL3-3xHA (100 ng/well) and equal amounts of expression vectors pMT2-Gata4 and pMT2-Nkx2-5 (total of 50 ng/well) using Fugene 6 (Promega) at a reagent:DNA ratio of 3:1. Cells transfected with either pMT2, pMT2-Gata4 or pMT2-Nkx2-5 were used to confirm synergistic transactivation of the reporter gene in all experiments. After 6 h of transfection, the cells were treated with compounds or vehicle (0.1% dimethyl sulfoxide, DMSO) and the luminescence was measured 24 h later using Neolite Reporter Gene Assay System (PerkinElmer, Turku, Finland) according to manufacturer’s instructions and Victor2 plate reader (PerkinElmer, Turku, Finland). Each compound was tested in three technical replicates in at least two independent experiments.
A luciferase reporter assay with an artificial promoter containing three high-affinity binding sites for NKX2-5 was used to evaluate the effects of the compounds on GATA4–NKX2-5 transcriptional synergy (Kinnunen et al. [2015]). We have previously shown that while GATA4 alone induces only minimal activation of this promoter, it strongly potentiates NKX2-5-mediated transactivation (Kinnunen et al. [2015]; Välimäki et al. [2017]).

SMILES | reduction in cell viability (mESCs) | toxicity class (toxic / non-toxic) [1] | effect on GATA4- and NKX2-5-induced gene activation (luciferase reporter activity) [2] | sensitivity of cell type to compound (viability) (mESCs)
CCN(CC)c1ccc(NC(=O)c2c(C)noc2-c2cc(C)on2)cc1 [3i-1047] | 38–45% | non-toxic | only a weak effect | 
COc1ccc(-c2cc(N)nn2C(=O)c2c(-c3ccccc3)noc2C)cc1 [3i-1229] |  | toxic | only a weak effect | sensitive
CCC(=O)N(Cc1ccc(N(CC)CC)cc1)c1c(-c2ccccc2)noc1C [3i-1120] |  | toxic | inhibitory effect | sensitive
CCN(CC)c1ccc(NC(=O)c2cc(C)oc2-c2ccccc2)cc1 [3i-1148] |  | toxic | inhibitory effect | sensitive
CCN(CC)c1ccc(NC(=O)c2c(-c3ccccc3)noc2C)cc1 [3i-1000] | 56% | toxic | inhibitory effect | 
